Type in all cases: cell-based
The subject of data set [1] is HeLa MKYP cells. Nature of the data set: Human mitophagy assay (HeLa mKeima assay, FACS). The procedure, abridged:
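HeLa cells carrying the pH-sensitive mtKeima tag incubated 16 h with compound at several concentrations, then 1 uM FCCP/oligomycin for 6 h. FACS detects mitochondria in lysosomes through the Keima emission shift, quantified as percentage of cells in mitophagy.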

The test system of data set [2] is HeLa MKYP cells. Put plainly: Cell death measured by DAPI staining, with 1 μM FCCP/oligomycin or no toxin (no FO). A digest of the protocol:
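HeLa MKYP cells were treated with compounds alongside 1 μM FCCP/oligomycin or no toxin for 6 or 6.5 h. Cell death was scored by DAPI staining, with H2O2 treatment as the death control.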

The nature of data set [3]: Mitotoxicity / Mitotox safety margin (therapeutic window).
Setting [4] is: Homo sapiens, HeLa, read-out: Mitophagy induction EC50.
Setting [5] is: read-out: Mitophagy induction EC50.

The values below come from patent publication US20240018146A1, “COMPOSITIONS AND METHODS OF USING THE SAME FOR TREATMENT OF NEURODEGENERATIVE AND MITOCHONDRIAL DISEASE” (MITOKININ, INC., priority 2020, published 2024).

SMILES strings stand for the structures. Read-outs that look alike come from different tables or passages of the source.

A word on the EC50: it is the concentration at which the effect is half-maximal. For the compound `FC(F)(F)c1cc2c(N[C@H]3c4ccccc4OC[C@H]3C3CCCOC3)ncnc2[nH]1` (mixture of isomers) [EP-0041004], in the data set with HeLa MKYP cells [1] (setting [4]), the EC50 is 980 nM. In addition, in the data set on HeLa MKYP cells [2] (no FO), the “Highest safe dose (cytotoxicity; no FO; safe means DAPI+ <20%)” value turned out to be 25.0 µM. Further, the “Max % death with 1 μM FO” value in the data set with HeLa MKYP cells [2] worked out at 71.7%. Besides, in data set [3], the “Mito-Safety Index (highest safe dose/EC50)” value (shortened to “Mito-Safety Index”) is 25.46 and the “Highest safe dose (μM) (mitotox or cytotox)” value (“Highest safe dose (μM)” for short) was determined as 25.0 µM.
Take `Oc1ccc2c(c1)CCC[C@H]2Nc1ncnc2[nH]c(C(F)(F)F)cc12` (single isomer, unassigned) [EP-0038508]: the mitotoxicity entry in data set [3] (FIG. 5-7) is recorded as “low mitotoxicity”.
Regarding `Fc1ccc2c(c1)CC[C@H](N1CCOCC1)[C@H]2Nc1ncnc2[nH]c(C3CC3)cc12` (single isomer, unassigned) [EP-0039746], in the data set with HeLa MKYP cells [1] (HeLa mKeima assay, read-out: Mitophagy EC50 (HeLa mKeima assay)), the EC50 came to 250 nM. Further, the half-maximal effective concentration (EC50) in the data set on HeLa MKYP cells [1] (setting [5]) amounted to 290 nM. For the same compound, the “Max cell death at 25 μM compound, 1 uM FO (%)” value with HeLa MKYP cells [2] (25 μM compound, 1 uM FO) worked out at 15.3%. Also, the “Cell death at 25 μM (no FO) (%)” value in the data set on HeLa MKYP cells [2] (25 μM compound, no FO) is listed as 3.3%. Also, the “Highest safe dose (cytotoxicity; no FO; safe means DAPI+ <20%)” value in the data set with HeLa MKYP cells [2] (no FO) turned out to be 25.0 µM. In addition, the “Max % death with 1 μM FO” value in the data set with HeLa MKYP cells [2] turned out to be 13.4%. In addition, in data set [3], the “Mitotox safety margin (Therapeutic window)” value was “+++ (+++ = 20 < x < 30)”, the “Mito-Safety Index” value was 9.48 and the “Highest safe dose (μM)” value was 2.8 µM.
For `c1ccc2c(c1)CC[C@H](N1CCOCC1)[C@H]2Nc1ncnc2[nH]c(C3CC3)cc12` (single isomer, unassigned) [EP-0040108], the EC50 in the data set on HeLa MKYP cells [1] (setting [4]) turned out to be 130 nM. The “Highest safe dose (cytotoxicity; no FO; safe means DAPI+ <20%)” value in the data set with HeLa MKYP cells [2] (no FO) turned out to be 25.0 µM. In addition, the “Max % death with 1 μM FO” value in the data set with HeLa MKYP cells [2] was 19.1%. Moreover, in data set [3], the “Mito-Safety Index” value turned out to be 138.83 and the “Highest safe dose (μM)” value was 18.3 µM.
On the same counts, the results for `c1ccc2c(c1)CC[C@@H](N1CCOCC1)[C@@H]2Nc1ncnc2[nH]c(C3CC3)cc12` (single isomer, unassigned) [EP-0040109] are 24800 nM, 25.0 µM, 7.9%, 1.01 and 25.0 µM.
Take `Fc1ccc2c(c1)OC[C@H](N1C[C@H]3COC[C@H]3C1)[C@H]2Nc1ncnc2[nH]c(C3CC3)cc12` (single isomer, unassigned) [EP-0040328]: the EC50 with HeLa MKYP cells [1] (setting [5]) is 190 nM. In the data set with HeLa MKYP cells [2] (no FO), the “Highest safe dose (cytotoxicity; no FO; safe means DAPI+ <20%)” value is 25.0 µM. Besides, the “Max % death with 1 μM FO” value with HeLa MKYP cells [2] is listed as 16.0%. Moreover, in data set [3], the “Mito-Safety Index” value is recorded as 84.78 and the “Highest safe dose (μM)” value was 16.0 µM.
With `c1ccc2c(c1)OC[C@@H](N1C[C@H]3COC[C@H]3C1)[C@@H]2Nc1ncnc2[nH]c(C3CC3)cc12` (single isomer, unassigned) [EP-0040392], the EC50 in the data set with HeLa MKYP cells [1] (setting [4]) turned out to be 110 nM. Moreover, the “Highest safe dose (cytotoxicity; no FO; safe means DAPI+ <20%)” value with HeLa MKYP cells [2] (no FO) was determined as 25.0 µM. In the data set with HeLa MKYP cells [2], the “Max % death with 1 μM FO” value was 11.8%. Moreover, in data set [3], the “Mito-Safety Index” value came to 153.83 and the “Highest safe dose (μM)” value came to 16.6 µM.
The like results for `C[C@@H]1CN([C@H]2CCc3ccccc3[C@@H]2Nc2ncnc3[nH]c(C(F)(F)F)cc23)CCO1` (single isomer, unassigned) [EP-0040491] were, in that order, 70 nM, 25.0 µM, 19.4%, 49.72 and 3.7 µM.
The like results for `C[C@@H]1CN([C@H]2CCc3ccccc3[C@@H]2Nc2ncnc3[nH]c(C(F)(F)F)cc23)C[C@H](C)O1` (single isomer, unassigned) [EP-0040493] were, in that order, 20 nM, 25.0 µM, 14.8%, 103.09 and 1.7 µM.
For the compound `C[C@@H]1CN([C@H]2CCc3ccccc3[C@@H]2Nc2ncnc3[nH]c(C4CC4)cc23)CCO1` (single isomer, unassigned) [EP-0040496], the EC50 with HeLa MKYP cells [1] (setting [4]) was 20 nM. Also, the “Highest safe dose (cytotoxicity; no FO; safe means DAPI+ <20%)” value with HeLa MKYP cells [2] (no FO) was found to be 25.0 µM. Besides, the “Max % death with 1 μM FO” value in the data set with HeLa MKYP cells [2] was found to be 15.6%. Besides, in data set [3], the “Mito-Safety Index” value amounted to 82.87 and the “Highest safe dose (μM)” value stood at 1.3 µM.
The like results for `C[C@@H]1CN([C@H]2CCc3ccccc3[C@@H]2Nc2ncnc3[nH]c(C4CC4)cc23)C[C@H](C)O1` (single isomer, unassigned) [EP-0040498] were, in that order, 20 nM, 25.0 µM, 16.5%, 30.45 and 0.7 µM.
On the same counts, the results for `Fc1cccc2c1CC[C@@H](N1C[C@H]3COC[C@H]3C1)[C@@H]2Nc1ncnc2[nH]c(C(F)(F)F)cc12` (single isomer, unassigned) [EP-0040506] are 50 nM, 25.0 µM, 41.0%, 44.10 and 2.2 µM.
On the same counts, the results for `C[C@H]1CN([C@H]2CCc3ccccc3[C@@H]2Nc2ncnc3[nH]c(C4CC4)cc23)CCO1` (single isomer, unassigned) [EP-0040511] are 70 nM, 25.0 µM, 13.1%, 53.66 and 3.5 µM.
Consider `Fc1cccc2c1CC[C@@H](N1C[C@H]3COC[C@H]3C1)[C@@H]2Nc1ncnc2[nH]c(C3CC3)cc12` (single isomer, unassigned) [EP-0040577], for which the EC50 with HeLa MKYP cells [1] (setting [4]) worked out at 20 nM. The “Highest safe dose (cytotoxicity; no FO; safe means DAPI+ <20%)” value in the data set on HeLa MKYP cells [2] (no FO) came out at 25.0 µM. The “Max % death with 1 μM FO” value with HeLa MKYP cells [2] stood at 28.6%. Further, in data set [3], the “Mito-Safety Index” value worked out at 86.01 and the “Highest safe dose (μM)” value was determined as 1.3 µM.
The like results for `FC(F)(F)c1cc2c(N[C@H]3c4ccccc4CC[C@@H]3C3CCOCC3)ncnc2[nH]1` (single isomer, unassigned) [EP-0040580] were, in that order, 80 nM, 25.0 µM, 17.1%, 68.72 and 5.5 µM.
The like results for `c1ccc2c(c1)CC[C@H](C1CCOCC1)[C@H]2Nc1ncnc2[nH]c(C3CC3)cc12` (single isomer, unassigned) [EP-0040582] were, in that order, 80 nM, 25.0 µM, 17.7%, 68.01 and 5.1 µM.
Take `Fc1ccc2c(c1)OC[C@H](N1C[C@@H]3COC[C@H]3C1)[C@H]2Nc1ncnc2[nH]c(C3CC3)cc12` (single isomer, unassigned) [EP-0040644]: the EC50 in the data set on HeLa MKYP cells [1] (setting [5]) was found to be 340 nM. Further, the “Highest safe dose (cytotoxicity; no FO; safe means DAPI+ <20%)” value in the data set with HeLa MKYP cells [2] (no FO) turned out to be 25.0 µM. Moreover, the “Max % death with 1 μM FO” value with HeLa MKYP cells [2] was 8.1%. For the same compound, in data set [3], the “Mito-Safety Index” value was found to be 72.77 and the “Highest safe dose (μM)” value worked out at 25.0 µM.
On to `FC(F)(F)c1cc2c(N[C@@H]3c4ccccc4OC[C@H]3C3CCOCC3)ncnc2[nH]1` (single isomer, unassigned) [EP-0040700], for which the EC50 in the data set with HeLa MKYP cells [1] (setting [4]) amounted to 110 nM. Further, the “Highest safe dose (cytotoxicity; no FO; safe means DAPI+ <20%)” value with HeLa MKYP cells [2] (no FO) was determined as 25.0 µM. In addition, the “Max % death with 1 μM FO” value in the data set on HeLa MKYP cells [2] is 14.1%. In addition, in data set [3], the “Mito-Safety Index” value was determined as 41.37 and the “Highest safe dose (μM)” value amounted to 4.7 µM.
On the same counts, the results for `Fc1ccc2c(c1)CC[C@@H](N1C[C@H]3COC[C@H]3C1)[C@@H]2Nc1ncnc2[nH]c(C(F)(F)F)cc12` (single isomer, unassigned) [EP-0040721] are 180 nM, 8.3 µM, 36.3%, 46.94 and 8.3 µM.
With `Fc1ccc2c(c1)OC[C@H](N1C[C@H]3COC[C@@H]3C1)[C@H]2Nc1ncnc2[nH]c(C(F)(F)F)cc12` (single isomer, unassigned) [EP-0040748], in the data set with HeLa MKYP cells [1] (setting [5]), the EC50 came out at 210 nM. For the same compound, in the data set with HeLa MKYP cells [2] (no FO), the “Highest safe dose (cytotoxicity; no FO; safe means DAPI+ <20%)” value worked out at 25.0 µM. Moreover, the “Max % death with 1 μM FO” value with HeLa MKYP cells [2] was determined as 25.3%. In data set [3], the “Mito-Safety Index” value worked out at 46.81 and the “Highest safe dose (μM)” value came to 9.9 µM.
Regarding `C[C@@H]1CN([C@H]2COc3ccccc3[C@@H]2Nc2ncnc3[nH]c(C(F)(F)F)cc23)C[C@H](C)O1` (single isomer, unassigned) [EP-0040749], in the data set with HeLa MKYP cells [1] (setting [4]), the EC50 was 150 nM. In the data set on HeLa MKYP cells [2] (no FO), the “Highest safe dose (cytotoxicity; no FO; safe means DAPI+ <20%)” value is 25.0 µM. Also, the “Max % death with 1 μM FO” value in the data set with HeLa MKYP cells [2] was determined as 34.3%. For the same compound, in data set [3], the “Mito-Safety Index” value was found to be 48.24 and the “Highest safe dose (μM)” value worked out at 7.1 µM.
The like results for `C[C@@H]1CN([C@H]2COc3ccccc3[C@@H]2Nc2ncnc3[nH]c(C4CC4)cc23)C[C@H](C)O1` (single isomer, unassigned) [EP-0040750] were, in that order, 50 nM, 25.0 µM, 27.7%, 43.07 and 2.3 µM.
